Results: US20120178147A1, “MICROBIAL CULTURES AND METHODS FOR ANAEROBIC BIOREMEDIATION” (priority 2009, published 2012)

System: sediment microcosms
Assay: Effect of TCC, TCS and BES on TCE dechlorination in sediment microcosms and cultures derived from them
Assay type: cell-based
Procedure: In this study, microcosm is defined as: anaerobic airtight serum bottles with sediment samples, anaerobic medium, electron donor, and a chlorinated compound used as an electron acceptor. Four microcosms were set up in the anaerobic glove chamber with H2 concentration of 3% (Coy laboratory products Inc. Grass Lake, Mich.). Ten gram of homogeneously mixed sediment from either core A or core D were transferred independently into a 160 ml sterile serum bottle, and 90 ml anaerobic media with vitamin solution and 2 mM lactate were added. One hundred μL of 20 mg/L TCC stock solution in methanol and 100 μL of 20 mg/L TCS stock solution were added by pipette (Eppendorf, Calif.) to two of the four microcosms. Microcosms were capped with thick black butyl rubber stoppers and aluminum crimps. 4.5 μL pure TCE was injected with airtight syringe (Hamilton Company, Reno, Nev.) into each serum bottle. On day 130, in order to inhibit methane production in the sediment microcosms, 25 mM BES was added in to sediment-A microcosm and sediment-D microcosm with TCC and TCS with airtight syringe (Hamilton Company, Reno, Nev.). Microcosms were stored in the dark and incubated at 30° C.
Production of Sediment-Free Cultures. To establish sediment-free cultures from core A and core D sediment microcosms, the microcosms were shaken vigorously, and the solids were allowed to settle down. Then, using 1-inch, 21-gauge sterile needles, […] liquid (10 ml) were transferred into 89 ml sterile medium with the following contents: anaerobic medium, ATCC vitamin mix, and vitamin B12, in 160-ml serum bottles. Then, 1 ml each of 500-mM lactate stock solution and 35-μL TCE stock solution (1 mol/L in methanol) were added to form a 100 ml culture in 160-ml serum bottle. Three sediment cultures were derived from each sediment microcosm, and 12 sediment-free cultures were produced (FIG. 1). For organizational purposes, we refer to the sediment-free cultures generated from sediment-A microcosms as SCA and the sediment free cultures generated from sediment-D microcosms as DehaloR̂2, in the figures herein, the DehaloR̂2 are referred to as “SCD”. Thus, the term “SCD” and DehaloR̂2 are used interchangeably herein as the composition “SCD” was renamed “DehaloR̂2” during the course of investigation. The sediment-free cultures were kept in the dark and incubated at 30° C. After all the chlorinated electron acceptors were consumed, the cultures were re-spiked with TCE and electron donors.
BES (2-bromoethanesulfonate) is an efficient inhibitor for the metabolism of methanogens in methanogenetic cultures because it is a structural analog and competitive inhibitor of coenzyme M, which is only found in methanogens (Dimarco et al., 1990; Sparling and Daniels, 1987). Different concentrations of BES have been used by researchers. […] In this study, in order to determine if the cause for incomplete reductive dechlorination was competition for electron donor between methanogens and TCE dechlorinating microorganisms in the microcosms, I added 25 mM BES, 70 μmol of TCE, and 5 mM lactate into two sediment microcosms, sediment-A and sediment-D with TCC and TCS. In two other sediment microcosms, I added 70 μmol of TCE and 5 mM lactate without BES.

For O=S(=O)(O)CCBr [BES, 2-bromoethanesulfonic acid], the “effect on TCE reductive dechlorination” value (25 mM BES) was “exerted some inhibition on TCE reductive dechlorination”, the methane production (25 mM BES, two sediment microcosms) was “no methane was produced” and the “effect on TCE dechlorination rates in sediment-free cultures” value (cultures from microcosms amended with TCC, TCS, BES) was “slow down TCE dechlorination rates”.
